Results from US20240174618A1, “SUBSTITUTED (2-HETEROARYLOXYPHENYL)SULFONATES, SALTS THEREOF AND THEIR USE AS HERBICIDAL AGENTS” (Bayer Aktiengesellschaft, priority 2021, published 2024).

Legend:
Type in all cases: in vivo
[1] = test system: Triticum aestivum (TRZAS); assay: D. Pre-emergence effect on useful plants, TRZAS; settings: useful plant
Procedure, shortened: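 Seeds sown in pots and covered with soil; WP or EC formulations sprayed on the soil surface as aqueous suspension/emulsion with 0.5% additive at 600 l/ha water. Plants grown in greenhouse; crop damage scored visually after about 3 weeks as % versus untreated controls (100% = dead, 0% = like control).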

[2] = test system: Digitaria sanguinalis (DIGSA); assay: C. Herbicidal pre-emergence efficacy, DIGSA; settings: scored after about 3 weeks
Procedure, shortened: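 Pre-emergence test: formulated compounds sprayed as aqueous suspension or emulsion with 0.5% additive at 600 l/ha onto soil covering sown seeds, at rates corresponding to 320 g/ha or less. After about 3 weeks in greenhouse, efficacy scored visually as percent versus untreated controls (100% = plants dead).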

[3] = test system: Amaranthus retroflexus (AMARE); assay: B. Herbicidal post-emergence efficacy, AMARE
Procedure, shortened: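 Weeds grown in sandy loam in greenhouse pots, sprayed at one-leaf stage (2–3 weeks after sowing) with WP or EC formulations as aqueous suspension/emulsion plus 0.5% additive at 600 L/ha water, rates up to 1280 g/ha. Visual efficacy rated about 3 weeks later versus untreated controls (0% = like control, 100% = dead).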

[4] = test system: Lolium rigidum (LOLRI); assay: A. Herbicidal pre-emergence efficacy, LOLRI
Procedure, shortened: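 Pre-emergence soil-surface spray in sandy loam pots, WP/EC in water plus 0.5% additive, 600 L/ha. Visual % damage rating after about 3 weeks in greenhouse vs. untreated; 0% = control-like, 100% = dead plants. Rates up to 1280 g/ha.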

[5] = test system: Veronica persica (VERPE); assay: E. Herbicidal post-emergence efficacy, VERPE
Procedure, shortened: (§1)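 Greenhouse post-emergence spray, one-leaf stage (2–3 wk after sowing, sandy loam); WP/EC formulation, aqueous + 0.5% additive, 600 l/ha water; rates 320 g/ha or less. Visual rating ~3 wk later vs untreated; 0% = control-like, 100% = dead.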

[6] = test system: Kochia scoparia (KCHSC); assay: E. Herbicidal post-emergence efficacy, KCHSC
Procedure, shortened: as §1

[7] = test system: Abutilon theophrasti (ABUTH); assay: E. Herbicidal post-emergence efficacy, ABUTH
Procedure, shortened: as §1

[8] = test system: Amaranthus retroflexus (AMARE); assay: E. Herbicidal post-emergence efficacy, AMARE
Procedure, shortened: as §1

[9] = test system: Setaria viridis (SETVI); assay: E. Herbicidal post-emergence efficacy, SETVI
Procedure, shortened: as §1

Compound	Pre-emergence efficacy against TRZAS in % ([1]; application rate 80 g/ha) [%]	Pre-emergence efficacy against TRZAS in % ([1]; application rate 320 g/ha) [%]	Pre-emergence efficacy against DIGSA ([2]; 320 g/ha) [%]	Post-emergence efficacy against AMARE ([3]; 320 g/ha) [%]	Post-emergence efficacy against AMARE ([3]; 1280 g/ha) [%]	Pre-emergence efficacy against LOLRI ([4]; dosage 1280 g/ha) [%]	Post-emergence efficacy against VERPE in % ([5]; application rate 80 g/ha) [%]	Post-emergence efficacy against VERPE in % ([5]; application rate 320 g/ha) [%]	Post-emergence efficacy against KCHSC in % ([6]; application rate 320 g/ha) [%]	Pre-emergence efficacy against DIGSA ([2]; 80 g/ha) [%]	Post-emergence efficacy against AMARE ([3]; 80 g/ha) [%]	Post-emergence efficacy against ABUTH in % ([7]; application rate 320 g/ha) [%]	Pre-emergence efficacy against LOLRI ([4]; dosage 320 g/ha) [%]	Post-emergence efficacy against AMARE in % ([8]; application rate 80 g/ha) [%]	Post-emergence efficacy against AMARE in % ([8]; application rate 320 g/ha) [%]	Post-emergence efficacy against SETVI in % ([9]; application rate 80 g/ha) [%]	Post-emergence efficacy against SETVI in % ([9]; application rate 320 g/ha) [%]	Post-emergence efficacy against KCHSC in % ([6]; application rate 80 g/ha) [%]	Post-emergence efficacy against ABUTH in % ([7]; application rate 80 g/ha) [%]
C=CCS(=O)(=O)Oc1ccccc1Oc1ncc(Cl)cn1 [Example I-36]	0	0	100	90	100	100	80	100	90										
O=S(=O)(CCCC(F)F)Oc1c(F)cccc1Oc1ncc(Cl)cn1 [Example I-56]			100	90	90	100	100	100	100	100	90	100	100	100	100	80	100	100	
O=S(=O)(CCC(F)(F)F)Oc1c(F)cccc1Oc1ncc(Cl)cn1 [Example I-48]			100	90	90	90	100	100	100	100	90	100	90	100	100	100	100	100	90
Cc1cccc(Oc2ncc(F)cn2)c1OS(=O)(=O)CCCC(F)(F)F [Example I-46]			100			100	100	100	100	100		90	100		90		80		
O=S(=O)(CCCC(F)(F)F)Oc1c(Cl)cccc1Oc1ncc(Cl)cn1 [Example I-39]			100	90	90	100	100	100	100	100		100	100	100	100	100	100	100	80
